Where two headings read alike, the source gives them in different places. Marks after values point to notes of the source that are not given here.

The format of the series is in vivo, human. The settings on record: flurbiprofen 100 mg oral, n=12.
Where [1] appears, read: arithmetic mean, Fluconazole/ placebo.
[2] abbreviates: arithmetic mean, Pom extract/ placebo.
Setting [3] is: arithmetic mean, Pom juice/ placebo.
Where [4] appears, read: geometric mean, Fluconazole/ placebo.
[5] abbreviates: geometric mean, Pom extract/ placebo.
[6] abbreviates: geometric mean, Pom juice/ placebo.

For the compound `CC(C(=O)O)c1ccc(-c2ccccc2)c(F)c1` (stereo not drawn) [FLURBIPROFEN, Flurbiprofen], the Cmax ratio is, setting by setting: under setting [1], 1.57 ^*; under setting [2], 1.08; under setting [3], 1.09; under setting [4], 1.47; under setting [5], 1.03; under setting [6], 1.03. The “Total AUC ratio” value reads like this: under setting [1], 2.04 ^*; under setting [2], 1.09; under setting [3], 1.08; under setting [4], 1.97; under setting [5], 1.06; under setting [6], 1.05.

The record behind these values is publication PMC6170196 (Clinical pharmacology and therapeutics, 2012).
